Laboratory results published in patent US12005078B2, “Genetically engineered drug resistant T cells and methods of using the same” (The UAB Research Foundation, priority 2015, dated 2024).

Assays:
[1] = tested on: X12P glioma; test: Survival of glioma-bearing mice; format: in vivo
Description: (§1) The expression of NKG2DL on tumor cells increases the overall potency of γδ T cell therapy. FIGS. 5A and 5B show the survival of X12P and X12T (TMZ resistant) glioma-bearing mice, respectively, in response to various treatments. […] The DRI treatment regimen increased median survival from 57 to 75 days over the TMZ treatment regimen. […] The DRI treatment regimen increased median survival from 22 to 27 days over the TMZ treatment regimen. The effect of the DRI treatment regimen could be increased by intensification of the administration of the γδ T cells and NK cells from a single administration per week (as shown in FIG. 2) to two administrations per week (data not shown).

[2] = tested on: X12T glioma; test: Survival of TMZ-resistant glioma-bearing mice; format: in vivo; settings: cells given as single administration per week
Description: as §1

**Q.** What does the source list for `Cn1nnc2c(C(N)=O)ncn2c1=O` [TMZ, temozolomide]?
**A.** median survival [1]: 57 days; median survival [2]: 22 days
